From ChEMBL document CHEMBL2434914 (Bioorg Med Chem Lett, 2013)
pIC50: −log10 of the molar value.

Tests used:
[1] = Cytotoxicity against human MM1S cells after 48 hrs by ATPlite assay; assay type: functional, cell-based; conditions: MM1.S
[2] = molecular target: T1, Protein deacetylase HDAC6 (Homo sapiens, UniProt Q9UBN7); test: Inhibition of HDAC6 (unknown origin) using MAZ1600 and MAZ1675 as substrate assessed as fluorogenic release of 7-amino-4-methylcoumarin from substrate by optimized homogenous assay
T1 sequence (Q9UBN7 whole entry): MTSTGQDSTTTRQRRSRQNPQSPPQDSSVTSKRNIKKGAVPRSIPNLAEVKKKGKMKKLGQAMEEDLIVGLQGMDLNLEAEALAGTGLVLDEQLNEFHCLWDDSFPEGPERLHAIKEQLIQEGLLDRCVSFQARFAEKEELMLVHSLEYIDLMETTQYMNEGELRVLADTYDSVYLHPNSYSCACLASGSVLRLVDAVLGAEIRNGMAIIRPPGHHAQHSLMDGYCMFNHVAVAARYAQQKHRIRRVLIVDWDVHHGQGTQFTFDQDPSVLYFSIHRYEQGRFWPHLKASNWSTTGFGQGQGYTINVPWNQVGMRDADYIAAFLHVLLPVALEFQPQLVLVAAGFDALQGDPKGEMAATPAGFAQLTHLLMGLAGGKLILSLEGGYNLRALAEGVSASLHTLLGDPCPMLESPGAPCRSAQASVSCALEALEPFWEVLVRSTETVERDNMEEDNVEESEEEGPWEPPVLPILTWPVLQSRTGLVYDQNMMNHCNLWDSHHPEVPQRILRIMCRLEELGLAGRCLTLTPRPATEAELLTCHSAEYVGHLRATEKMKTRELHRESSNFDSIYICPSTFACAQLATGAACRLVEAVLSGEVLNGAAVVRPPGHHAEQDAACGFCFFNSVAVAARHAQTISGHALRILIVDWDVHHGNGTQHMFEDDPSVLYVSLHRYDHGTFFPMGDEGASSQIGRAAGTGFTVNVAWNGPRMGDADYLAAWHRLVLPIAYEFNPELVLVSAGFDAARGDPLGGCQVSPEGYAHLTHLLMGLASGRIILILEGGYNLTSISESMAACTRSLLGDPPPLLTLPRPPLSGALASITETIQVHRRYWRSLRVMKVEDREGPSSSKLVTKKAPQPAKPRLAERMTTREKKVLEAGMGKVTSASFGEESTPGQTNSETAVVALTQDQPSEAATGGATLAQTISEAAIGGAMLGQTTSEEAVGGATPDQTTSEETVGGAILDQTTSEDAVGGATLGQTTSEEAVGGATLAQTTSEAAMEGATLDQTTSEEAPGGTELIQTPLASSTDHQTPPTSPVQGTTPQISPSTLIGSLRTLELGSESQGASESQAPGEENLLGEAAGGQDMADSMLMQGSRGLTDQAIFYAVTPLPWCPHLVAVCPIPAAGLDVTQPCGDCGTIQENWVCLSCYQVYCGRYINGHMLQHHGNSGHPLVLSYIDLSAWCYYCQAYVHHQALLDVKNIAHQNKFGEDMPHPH

[3] = molecular target: Histone deacetylase 3 (Homo sapiens, UniProt O15379); test: Inhibition of HDAC3 (unknown origin) using MAZ1600 and MAZ1675 as substrate assessed as fluorogenic release of 7-amino-4-methylcoumarin from substrate by optimized homogenous assay
Histone deacetylase 3, sequence (O15379 whole entry): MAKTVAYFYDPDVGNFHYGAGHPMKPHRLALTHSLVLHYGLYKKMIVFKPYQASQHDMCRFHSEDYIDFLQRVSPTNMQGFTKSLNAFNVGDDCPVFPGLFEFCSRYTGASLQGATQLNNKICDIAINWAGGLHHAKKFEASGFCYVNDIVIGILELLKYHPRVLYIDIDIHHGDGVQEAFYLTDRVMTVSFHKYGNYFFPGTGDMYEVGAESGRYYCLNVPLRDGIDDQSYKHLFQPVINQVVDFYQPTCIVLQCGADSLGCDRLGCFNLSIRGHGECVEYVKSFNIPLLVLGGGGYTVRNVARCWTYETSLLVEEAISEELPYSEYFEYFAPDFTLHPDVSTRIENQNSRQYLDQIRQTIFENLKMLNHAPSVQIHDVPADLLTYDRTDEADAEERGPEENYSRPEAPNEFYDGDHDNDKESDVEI

[4] = molecular target: Histone deacetylase 2 (Homo sapiens, UniProt Q92769); test: Inhibition of HDAC2 (unknown origin) using MAZ1600 and MAZ1675 as substrate assessed as fluorogenic release of 7-amino-4-methylcoumarin from substrate by optimized homogenous assay
Histone deacetylase 2, sequence (Q92769 whole entry): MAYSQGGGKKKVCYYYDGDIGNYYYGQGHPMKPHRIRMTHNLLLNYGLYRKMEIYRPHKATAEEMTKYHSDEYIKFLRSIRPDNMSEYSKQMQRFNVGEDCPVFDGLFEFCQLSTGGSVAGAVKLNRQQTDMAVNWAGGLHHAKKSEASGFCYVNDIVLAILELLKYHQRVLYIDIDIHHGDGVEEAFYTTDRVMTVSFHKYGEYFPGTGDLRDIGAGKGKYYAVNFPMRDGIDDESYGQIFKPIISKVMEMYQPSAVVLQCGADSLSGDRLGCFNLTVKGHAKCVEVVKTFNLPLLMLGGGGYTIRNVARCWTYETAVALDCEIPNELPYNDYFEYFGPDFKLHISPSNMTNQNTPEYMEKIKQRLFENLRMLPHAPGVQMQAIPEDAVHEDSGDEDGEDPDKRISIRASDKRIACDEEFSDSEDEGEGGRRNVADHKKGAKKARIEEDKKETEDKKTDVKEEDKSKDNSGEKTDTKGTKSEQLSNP

[5] = molecular target: Histone deacetylase 1 (Homo sapiens, UniProt Q13547); test: Inhibition of HDAC1 (unknown origin) using MAZ1600 and MAZ1675 as substrate assessed as fluorogenic release of 7-amino-4-methylcoumarin from substrate by optimized homogenous assay
Histone deacetylase 1, sequence (Q13547 whole entry): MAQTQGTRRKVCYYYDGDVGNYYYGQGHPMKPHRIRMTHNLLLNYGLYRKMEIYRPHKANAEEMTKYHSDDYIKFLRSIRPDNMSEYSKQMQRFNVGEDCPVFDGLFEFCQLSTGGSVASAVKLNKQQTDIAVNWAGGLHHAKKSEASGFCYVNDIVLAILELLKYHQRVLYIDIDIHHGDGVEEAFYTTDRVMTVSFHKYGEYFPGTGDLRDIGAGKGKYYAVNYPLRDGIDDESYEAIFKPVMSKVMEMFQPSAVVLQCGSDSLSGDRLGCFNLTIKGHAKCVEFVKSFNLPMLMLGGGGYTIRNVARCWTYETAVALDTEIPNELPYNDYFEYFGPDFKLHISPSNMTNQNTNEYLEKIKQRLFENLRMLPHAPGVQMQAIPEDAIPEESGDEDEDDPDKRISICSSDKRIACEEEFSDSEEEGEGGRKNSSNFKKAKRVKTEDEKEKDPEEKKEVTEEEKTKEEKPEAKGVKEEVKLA

[6] = molecular target: T2, Histone deacetylase 8 (Homo sapiens, UniProt Q9BY41); test: Inhibition of HDAC8 (unknown origin) using MAZ1600 and MAZ1675 as substrate assessed as fluorogenic release of 7-amino-4-methylcoumarin from substrate by optimized homogenous assay
T2 sequence (Q9BY41 whole entry): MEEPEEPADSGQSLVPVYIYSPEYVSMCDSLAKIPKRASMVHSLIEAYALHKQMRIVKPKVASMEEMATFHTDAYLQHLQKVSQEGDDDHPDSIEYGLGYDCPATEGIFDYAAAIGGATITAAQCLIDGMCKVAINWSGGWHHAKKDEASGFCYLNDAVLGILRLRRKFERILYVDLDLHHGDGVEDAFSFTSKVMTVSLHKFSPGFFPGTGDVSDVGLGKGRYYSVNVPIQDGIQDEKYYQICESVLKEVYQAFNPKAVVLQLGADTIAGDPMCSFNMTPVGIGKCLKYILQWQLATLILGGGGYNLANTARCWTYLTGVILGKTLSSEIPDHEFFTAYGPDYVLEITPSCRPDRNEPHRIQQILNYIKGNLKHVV

[7] = molecular target: T3, Histone deacetylase 7 (Homo sapiens, UniProt Q8WUI4); test: Inhibition of HDAC7 (unknown origin) using MAZ1600 and MAZ1675 as substrate assessed as fluorogenic release of 7-amino-4-methylcoumarin from substrate by optimized homogenous assay
T3 sequence (Q8WUI4 whole entry): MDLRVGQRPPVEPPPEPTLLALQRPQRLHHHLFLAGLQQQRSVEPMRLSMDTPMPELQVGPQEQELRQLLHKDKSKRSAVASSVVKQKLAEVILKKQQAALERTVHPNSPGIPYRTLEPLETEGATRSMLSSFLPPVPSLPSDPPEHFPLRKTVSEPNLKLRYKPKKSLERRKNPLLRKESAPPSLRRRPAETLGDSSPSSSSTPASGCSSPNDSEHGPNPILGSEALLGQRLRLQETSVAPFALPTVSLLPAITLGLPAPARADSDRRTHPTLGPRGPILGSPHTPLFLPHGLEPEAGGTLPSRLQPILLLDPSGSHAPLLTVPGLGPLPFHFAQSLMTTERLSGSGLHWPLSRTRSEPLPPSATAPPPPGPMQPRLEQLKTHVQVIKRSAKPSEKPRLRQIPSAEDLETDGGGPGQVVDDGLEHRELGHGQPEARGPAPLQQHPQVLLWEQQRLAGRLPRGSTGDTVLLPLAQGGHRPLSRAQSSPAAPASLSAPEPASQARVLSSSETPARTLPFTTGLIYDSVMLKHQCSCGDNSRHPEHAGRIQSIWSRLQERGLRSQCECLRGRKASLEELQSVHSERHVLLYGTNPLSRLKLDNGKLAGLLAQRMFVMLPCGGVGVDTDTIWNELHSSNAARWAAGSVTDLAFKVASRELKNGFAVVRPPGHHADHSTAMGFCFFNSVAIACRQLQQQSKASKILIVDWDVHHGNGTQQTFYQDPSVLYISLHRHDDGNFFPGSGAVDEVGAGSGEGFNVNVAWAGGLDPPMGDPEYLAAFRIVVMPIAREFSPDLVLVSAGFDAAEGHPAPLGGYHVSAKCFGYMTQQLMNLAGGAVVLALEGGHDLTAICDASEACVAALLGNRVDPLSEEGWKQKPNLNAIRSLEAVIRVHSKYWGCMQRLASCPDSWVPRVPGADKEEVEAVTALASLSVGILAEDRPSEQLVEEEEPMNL

| SMILES | pIC50 [1] | pIC50 [2] | pIC50 [3] | pIC50 [4] | pIC50 [5] | pIC50 [6] | pIC50 [7] |
| --- | --- | --- | --- | --- | --- | --- | --- |
| CCCCCCCC(=O)SCC/C=C/[C@@H]1CC(=O)NCc2nc(co2)C2=N[C@@](C)(CS2)C(=O)N[C@@H](C(C)C)C(=O)O1 | 6.92 | 5.96 | 5.72 | 5.68 | 6.02 |  |  |
| CC(C)[C@@H]1NC(=O)[C@]2(C)CSC(=N2)c2coc(n2)CNC(=O)C[C@@H](/C=C/CCS)OC1=O | 5.21 | 7.01 | 8.14 | 7.70 | 8.36 | 5.92 | 6.02 |
| CC(C)[C@@H]1NC(=O)[C@]2(C)CSC(=N2)c2coc(n2)CNC(=O)C[C@@H](/C=C/CCSSCC/C=C/[C@@H]2CC(=O)NCc3nc(co3)C3=N[C@@](C)(CS3)C(=O)N[C@@H](C(C)C)C(=O)O2)OC1=O | 6.04 | 7.30 | 6.26 | 5.89 | 6.82 |  |  |
